Values quoted from earlier work as cited in US20200188266A1, “Oral Care Compositions and Methods of Use” (priority 2017, published 2020).

Settings: DI water at about 35° C.

CC(=O)c1c(O)c(C)c(O)c2c1OC1=CC(=O)C(C(C)=O)C(=O)C12C (stereo not shown) [usnic acid]
solubility: about 6.3 ppm
